25 compounds from PubChem BioAssay AID330 (DTP/NCI, 2004) can be followed below.

SMILES strings stand for the structures. Several values for one entry are separate records, joined by “and”; a condition that tells them apart may be missing. Equal entries are not always repeated. Toxic doses and inconclusive results are not listed.

The test system of this experiment is P388 leukemia ip, CD2F1 mice, survival T/C. The experiment can be described thus: NCI In Vivo Anticancer Drug Screen. Data for tumor model P388 Leukemia (intraperitoneal) in CD2F1 (CDF1) mice. Conditions: endpoint: median survival time, higher = longer survival. Put shortly: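 Mice carrying the transplanted tumor received test compound or vehicle. Survival was recorded in each group, and the value is the treated-group measurement divided by that of the vehicle-treated control group.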

[1] abbreviates: dose: 100.0 mg/kg/injection, schedule: Q01DX001 (ip), vehicle: Klucel (hydroxypropylcellulose) (HPC).
Setting [2] is: dose: 200.0 mg/kg/injection, schedule: Q01DX001 (ip), vehicle: Klucel (hydroxypropylcellulose) (HPC).
Setting [3] is: dose: 400.0 mg/kg/injection, schedule: Q01DX001 (ip), vehicle: Klucel (hydroxypropylcellulose) (HPC).
Where [4] appears, read: dose: 100.0 mg/kg/injection, schedule: Q01DX009 (ip), vehicle: saline with Tween-80.
The mark [5] stands for this setting: dose: 200.0 mg/kg/injection, schedule: Q01DX009 (ip), vehicle: saline with Tween-80.
Setting [6] is: dose: 12.5 mg/kg/injection, schedule: Q01DX009 (ip), vehicle: saline.
Setting [7] is: dose: 25.0 mg/kg/injection, schedule: Q01DX009 (ip), vehicle: saline.
[8] abbreviates: dose: 50.0 mg/kg/injection, schedule: Q01DX009 (ip), vehicle: saline.
Where [9] appears, read: dose: 100.0 mg/kg/injection, schedule: Q01DX009 (ip), vehicle: saline.
The mark [10] stands for this setting: dose: 50.0 mg/kg/injection, schedule: Q01DX005 (ip), vehicle: Klucel (hydroxypropylcellulose) (HPC).
[11] abbreviates: dose: 100.0 mg/kg/injection, schedule: Q01DX005 (ip), vehicle: Klucel (hydroxypropylcellulose) (HPC).
Setting [12] is: dose: 200.0 mg/kg/injection, schedule: Q01DX005 (ip), vehicle: Klucel (hydroxypropylcellulose) (HPC).
Setting [13] is: dose: 60.0 mg/kg/injection, schedule: Q01DX005 (ip), vehicle: saline.
Where [14] appears, read: dose: 120.0 mg/kg/injection, schedule: Q01DX005 (ip), vehicle: saline.
The mark [15] stands for this setting: dose: 240.0 mg/kg/injection, schedule: Q01DX005 (ip), vehicle: saline.
Where [16] appears, read: dose: 50.0 mg/kg/injection, schedule: Q01DX005 (ip), vehicle: saline with Tween-80.
[17] abbreviates: dose: 100.0 mg/kg/injection, schedule: Q01DX005 (ip), vehicle: saline with Tween-80.
[18] abbreviates: dose: 200.0 mg/kg/injection, schedule: Q01DX005 (ip), vehicle: saline with Tween-80.
The mark [19] stands for this setting: dose: 50.0 mg/kg/injection, schedule: Q01DX009 (ip), vehicle: saline with Tween-80.

As to `COC(=O)Nc1nnc(Cn2c([N+](=O)[O-])cnc2C)s1`, the T/C under setting [1] was 96 % of control, the T/C under setting [2] is 101 % of control and the T/C under setting [3] is 93 % of control.

As for `CC(C)CCCCc1c[nH]c(=O)[nH]c1=O`, the T/C is, setting by setting: under setting [4], 95 % of control; under setting [5], 90 % of control; (dose: 400.0 mg/kg/injection, schedule: Q01DX009 (ip), vehicle: saline with Tween-80) 100 % of control.

Consider `CCOC(=O)Cc1ccc(-c2csc(Nc3ccc(F)cc3)n2)cc1`, for which the T/C was 103 % of control (dose: 50.0 mg/kg/injection, schedule: Q01DX009 (ip), vehicle: Klucel (hydroxypropylcellulose) (HPC)); 100 % of control (dose: 100.0 mg/kg/injection, schedule: Q01DX009 (ip), vehicle: Klucel (hydroxypropylcellulose) (HPC)); 105 % of control (dose: 200.0 mg/kg/injection, schedule: Q01DX009 (ip), vehicle: Klucel (hydroxypropylcellulose) (HPC)).

On to `O=C(O)CC(/C=C\C(=O)C(=O)O)=C\O`, for which the T/C was 100 % of control (dose: 1.56 mg/kg/injection, schedule: Q01DX009 (ip), vehicle: saline); 101 % of control (dose: 3.12 mg/kg/injection, schedule: Q01DX009 (ip), vehicle: saline); 100 % of control (dose: 6.25 mg/kg/injection, schedule: Q01DX009 (ip), vehicle: saline); 100 % of control and 114 % of control under setting [6]; 100 % of control and 109 % of control under setting [7]; 106 % of control under setting [8]. The T/C is 112 % of control under setting [9] and 86 % of control (dose: 200.0 mg/kg/injection, schedule: Q01DX009 (ip), vehicle: saline).

Consider `COc1ccc2c3c1OC1C(OC)(OC)C=CC4(F)[C@@H](C2)N(C)CC[C@]314` (stereo not given in full), for which the T/C is 105 % of control under setting [1], 100 % of control under setting [2] and 96 % of control under setting [3].

Consider `CCCCOc1ccc(/C=N/NC(=O)CNC(=O)Nc2cccc([N+](=O)[O-])c2)cc1`, for which the T/C by setting is: (dose: 15.0 mg/kg/injection, schedule: Q01DX005 (ip), vehicle: saline with Tween-80) 98 % of control; (dose: 30.0 mg/kg/injection, schedule: Q01DX005 (ip), vehicle: saline with Tween-80) 89 % of control; (dose: 60.0 mg/kg/injection, schedule: Q01DX005 (ip), vehicle: saline with Tween-80) 86 % of control and 87 % of control; (dose: 240.0 mg/kg/injection, schedule: Q01DX005 (ip), vehicle: saline with Tween-80) 91 % of control.

As to `CCn1c2ccccc2c2ccc(N=Cc3ccccc3[N+](=O)[O-])cc21`, the T/C runs as follows: (dose: 100.0 mg/kg/injection, schedule: Q04DX003 (ip), vehicle: Klucel (hydroxypropylcellulose) (HPC)) 98 % of control; (dose: 200.0 mg/kg/injection, schedule: Q04DX003 (ip), vehicle: Klucel (hydroxypropylcellulose) (HPC)) 97 % of control; (dose: 400.0 mg/kg/injection, schedule: Q04DX003 (ip), vehicle: Klucel (hydroxypropylcellulose) (HPC)) 96 % of control.

Regarding `C/C(=N\N(C)/C=N/S(C)(=O)=O)c1ccccc1`, the T/C reads like this: under setting [10], 98 % of control; under setting [11], 95 % of control; under setting [12], 104 % of control.

Turning to `CC(C)C1CS1=O` (stereo not given), the T/C reads like this: under setting [13], 97 % of control; under setting [14], 97 % of control; under setting [15], 109 % of control.

On to `CCCOc1cc2c(cc1C(C)c1ccccc1)OCO2` (stereo not given), for which the T/C was 101 % of control under setting [16], 95 % of control under setting [17] and 96 % of control under setting [18].

In the case of `COC(=O)c1[se]c(=[Se])[se]c1C(=O)OC`, the T/C under setting [2] is 88 % of control.

In the case of `O=C(Oc1cc(O)cc2[o+]c(-c3ccc(O)cc3)c(O)cc12)c1ccccc1`, the T/C runs as follows: under setting [10], 96 % of control; under setting [11], 109 % of control; under setting [12], 96 % of control.

Regarding `Cc1ccc(N=C(N=C(NC(=O)c2ccccc2)c2ccccc2)c2ccccc2)cc1`, the T/C by setting is: (dose: 12.5 mg/kg/injection, schedule: Q01DX009 (ip), vehicle: saline with Tween-80) 99 % of control; (dose: 25.0 mg/kg/injection, schedule: Q01DX009 (ip), vehicle: saline with Tween-80) 97 % of control; under setting [19], 89 % of control and 93 % of control (2×); under setting [5], 95 % of control.

Regarding `COc1ccc([P+](CCN2C(=O)c3ccccc3C2=O)(c2ccc(OC)cc2)c2ccc(OC)cc2)cc1`, the T/C runs as follows: (dose: 0.78 mg/kg/injection, schedule: Q01DX009 (ip), vehicle: water) 121 % of control; (dose: 1.56 mg/kg/injection, schedule: Q01DX009 (ip), vehicle: water) 114 % of control; (dose: 2.7 mg/kg/injection, schedule: Q01DX009 (ip), vehicle: water) 116 % of control; (dose: 3.13 mg/kg/injection, schedule: Q01DX009 (ip), vehicle: water) 121 % of control; (dose: 12.5 mg/kg/injection, schedule: Q01DX009 (ip), vehicle: water) 92 % of control.

In the case of `Cc1ccc(NCC2(/N=C/c3ccccc3)OC(CO)C(O)C2O)cc1` (stereo not given), the T/C runs as follows: (dose: 266.0 mg/kg/injection, schedule: Q01DX009 (ip), vehicle: Klucel (hydroxypropylcellulose) (HPC)) 150 % of control and 157 % of control; (dose: 400.0 mg/kg/injection, schedule: Q01DX009 (ip), vehicle: Klucel (hydroxypropylcellulose) (HPC)) 170 % of control and 176 % of control.

On to `Cc1ccc(NCCN(C)C)c2c(=O)c3c(O)cccc3sc12`, for which the T/C (dose: 50.0 mg/kg/injection, schedule: Q01DX009 (ip), vehicle: suspension in saline) was 166 % of control.

For `Brc1c(-c2ccccc2)nc2ccccc2c1Br`, the T/C runs as follows: under setting [16], 103 % of control; under setting [17], 97 % of control; under setting [18], 94 % of control.

In the case of `CN1CCC2(CC1)OCCO2`, the T/C by setting is: (dose: 25.0 mg/kg/injection, schedule: Q01DX005 (ip), vehicle: Klucel (hydroxypropylcellulose) (HPC)) 100 % of control; under setting [10], 100 % of control; under setting [11], 89 % of control; under setting [12], 89 % of control.

For the compound `COc1ccc(CC(C#N)c2ccccc2)cc1` (stereo not given), the T/C (dose: 25.0 mg/kg/injection, schedule: Q04DX003 (ip), vehicle: saline) is 99 % of control; the T/C (dose: 50.0 mg/kg/injection, schedule: Q04DX003 (ip), vehicle: saline) was 104 % of control; the T/C (dose: 100.0 mg/kg/injection, schedule: Q04DX003 (ip), vehicle: saline) is 103 % of control; the T/C (dose: 200.0 mg/kg/injection, schedule: Q04DX003 (ip), vehicle: saline) is 99 % of control.

In the case of `CCOC(=O)C(C(=O)OCC)[N+](=O)[O-]`, the T/C runs as follows: under setting [19], 100 % of control; under setting [4], 93 % of control.

In the case of `CC(=O)OC1C(C(O)CO)OC2OC(C)(C)OC21` (stereo not given), the T/C under setting [13] was 100 % of control, the T/C under setting [14] is 105 % of control and the T/C under setting [15] was 96 % of control.

With `C=C(Cl)C[N+]12CN3CN(CN(C3)C1)C2`, the T/C under setting [6] was 100 % of control, the T/C under setting [7] is 96 % of control, the T/C under setting [8] was 105 % of control and the T/C under setting [9] was 107 % of control.

`N#CC(=C1C=CC(=NO)C=C1)c1ccc(Cl)cc1`: the T/C by setting is: (dose: 50.0 mg/kg/injection, schedule: Q04DX003 (ip), vehicle: saline with Tween-80) 91 % of control; (dose: 100.0 mg/kg/injection, schedule: Q04DX003 (ip), vehicle: saline with Tween-80) 100 % of control and 92 % of control; (dose: 200.0 mg/kg/injection, schedule: Q04DX003 (ip), vehicle: saline with Tween-80) 98 % of control and 105 % of control; (dose: 400.0 mg/kg/injection, schedule: Q04DX003 (ip), vehicle: saline with Tween-80) 117 % of control.

`Cn1cnc([N+](=O)[O-])c1S(=O)(=O)NCN1CCOCC1`: the T/C was 116 % of control (dose: 6.25 mg/kg/injection, schedule: Q01DX009 (ip), vehicle: Klucel (hydroxypropylcellulose) (HPC)) and 119 % of control (dose: 12.5 mg/kg/injection, schedule: Q01DX009 (ip), vehicle: Klucel (hydroxypropylcellulose) (HPC)).

Consider `NS(=O)(=O)c1ccc(C(=O)O)s1`, for which the T/C reads like this: under setting [16], 104 % of control; under setting [17], 100 % of control.
